Reference: patent publication US10526311B2 (ASTEX THERAPEUTICS LIMITED, priority 2015, dated 2020)
pIC50: −log10 of the molar value. Like-named read-outs stand apart in the source and are kept apart here.

Assays:
[1] = target: MDM2-p53 interaction (in vitro translated MDM2, biotinylated IP3 peptide) (Homo sapiens, UniProt Q00987); assay: MDM2-p53 interaction 96-well plate binding assay (ELISA); settings: for inhibition at 0.1 µM: @ 0.10 μM; for inhibition at 0.1 µM / inhibition at 0.001 µM / inhibition at 0.03 µM: read-out: MDM2 % @ concentration; for inhibition at 0.03 µM: @ 0.030 μM
[2] = test system: SN40R2 (MDM2 amplified, p53 mutated osteosarcoma); assay: Protocol A: SN40R2 growth inhibition (SRB); settings: 72 h; for IC50: read-out: SN40R2 IC50 (μM) (Protocol A)
[3] = test system: SJSA-1 (MDM2 amplified, p53 wild-type osteosarcoma); assay: Protocol A: SJSA-1 growth inhibition (SRB); settings: for IC50: read-out: SJSA-1 IC50 (μM) (Protocol A), SJSA-1, Protocol A (SRB), 72 hrs
SJSA-1 = assay: Protocol B: SJSA-1 CellTiter-Glo cell viability; settings: for pIC50: read-out: SJSA1 IC50 (Protocol B), SJSA-1 cells, CellTiter-Glo, 72 hrs
[4] = Homo sapiens, SJSA-1, 72 h, read-out: SJSA1 IC50 (μM) (Protocol B), SJSA-1, Protocol B (CellTiter-Glo), 72 hrs
[5] = read-out: SJSA1 IC50 (μM) (Protocol B), SJSA-1, Protocol B (CellTiter-Glo), 72 hrs
[6] = Homo sapiens, SJSA-1, 72 h, read-out: SJSA-1 IC50 (Protocol A), SJSA-1 cells, SRB, 72 hrs

Sequence of MDM2-p53 interaction (in vitro translated MDM2, biotinylated IP3 peptide) (Q00987 whole entry): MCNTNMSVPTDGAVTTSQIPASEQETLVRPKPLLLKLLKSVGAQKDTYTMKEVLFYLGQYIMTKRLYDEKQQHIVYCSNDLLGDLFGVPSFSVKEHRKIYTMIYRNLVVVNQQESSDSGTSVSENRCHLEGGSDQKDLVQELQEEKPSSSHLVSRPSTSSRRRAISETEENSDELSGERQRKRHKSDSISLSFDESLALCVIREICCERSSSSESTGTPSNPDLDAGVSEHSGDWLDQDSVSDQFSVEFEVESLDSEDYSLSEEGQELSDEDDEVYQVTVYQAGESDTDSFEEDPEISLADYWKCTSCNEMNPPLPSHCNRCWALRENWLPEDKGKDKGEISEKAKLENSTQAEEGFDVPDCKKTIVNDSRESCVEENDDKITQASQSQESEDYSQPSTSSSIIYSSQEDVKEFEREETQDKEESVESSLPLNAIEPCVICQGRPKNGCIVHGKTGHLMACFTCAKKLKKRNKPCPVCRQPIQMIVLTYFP

Row | Structure (SMILES) | IC50 ([3]; Homo sapiens, SJSA-1, 72 h) | IC50 (SJSA-1; [4]) | further results
1 | CO[C@]1(c2ccc(Cl)cc2)c2ccc(C(C)(O)CN3CCOCC3=O)cc2C(=O)N1Cc1ccc(Cl)cn1 (single isomer, unassigned) [Example 328] |  |  | inhibition at 0.1 µM [1]: 42%; pIC50 ([2]; read-out: SN40R2 IC50 (Protocol A)): 4.60
2 | CO[C@]1(c2ccc(Cl)cc2)c2ccc(C(C)(O)CN3CC(=O)NC3=O)cc2C(=O)N1Cc1ccc(Cl)cn1 (single isomer, unassigned) [Example 329] |  |  | MDM2 % @ concentration ([1]; @ 0.30 μM): 61% @ 0.30; inhibition at 30 µM ([2]; read-out: SN40R2 (Protocol A) % at concentration): 8%
3 | CCC(O)(c1cc(F)c2c(c1)C(=O)N(Cc1ccc(C#N)cn1)[C@@]2(O[C@H]1CCOC1)c1ccc(Cl)cc1)c1ccn(C)n1 (single isomer, unassigned) [Example 336] | 0.1 µM |  | IC50 [2]: 42 µM
4 | CCC(O)(c1cc(F)c2c(c1)C(=O)N(Cc1ccc(C#N)cn1)[C@@]2(OCCOC)c1ccc(Cl)cc1)c1cn(C)cn1 (single isomer, unassigned) [Example 430] | 0.11 µM | 0.18 µM | 
5 | CCC(O)(c1cc(F)c2c(c1)C(=O)N(Cc1ccc(C#N)nc1)[C@@]2(O[C@H]1CCOC1)c1ccc(Cl)cc1)c1cn(C)cn1 (single isomer, unassigned) [Example 431] | 0.11 µM |  | 
6 | CCC(O)(c1cc(F)c2c(c1)C(=O)N(Cc1ncc(Cl)cc1O)[C@@]2(OCCO)c1ccc(Cl)cc1)c1cn(C)cn1 (single isomer, unassigned) [Example 443] |  | 0.093 µM | IC50 [2]: 38 µM
7 | CCC(O)(c1cc(F)c2c(c1)C(=O)N(Cc1ccc(C#N)cn1)[C@@]2(O[C@H]1CCOC1)c1ccc(Cl)cc1)C1(F)CCOCC1 (single isomer, unassigned) [Example 446] |  |  | MDM2 % @ concentration ([1]; @ 0.0010 μM): 76% @ 0.0010; IC50 [2]: 29 µM; IC50 (SJSA-1; [5]): 0.023 µM
8 | CCC(O)(c1cc(F)c2c(c1)C(=O)N(Cc1ccc(C#N)cn1)[C@@]2(OCCO)c1ccc(Cl)cc1)C1(F)CCOCC1 (single isomer, unassigned) [Example 500] |  |  | inhibition at 0.1 µM [1]: 21%; SJSA1 (Protocol B) % at concentration (SJSA-1; SJSA-1, Protocol B, at 10 μM): 16% at 10
9 | CCC(O)(c1cc(F)c2c(c1)C(=O)N(Cc1ccc(C#N)cn1)[C@@]2(O[C@H]1C[C@@H](O)C1)c1ccc(Cl)cc1)[C@H]1CC[C@H](O)CC1 (single isomer, unassigned) [Example 518] | 0.058 µM |  | inhibition at 0.001 µM ([1]; @ 0.0010 μM): 79%; IC50 (SJSA-1; [5]): 0.065 µM
10 | CCC(O)(c1cc(F)c2c(c1)C(=O)N(Cc1ccc(C#N)cn1)[C@@]2(O[C@H]1C[C@@H](O)C1)c1ccc(Cl)cc1)[C@H]1CC[C@H](O)CC1 (single isomer, unassigned) [Example 520] |  |  | inhibition at 0.03 µM [1]: 32%; IC50 (SJSA-1; [5]): 3.9 µM
11 | CO[C@]1(c2ccc(Cl)cc2)c2c(F)cc(C(C)(C)O)cc2C(=O)N1Cc1ccc(Cl)cn1 [Example 2, (3R)-3-(4-Chlorophenyl)-2-[(5-chloropyridin-2-yl)methyl]-4-fluoro-6-(2-hydroxypropan-2-yl)-3-methoxy-2,3-dihydro-1H-isoindol-1-one] |  |  | pIC50 [3, 6]: 5.77; pIC50 (SJSA-1; Homo sapiens, SJSA-1, 72 h): 5.47
12 | CC(O)(CO)c1cc(F)c2c(c1)C(=O)N(Cc1ccc(Cl)cn1)[C@@]2(OCC1(CO)CC1)c1ccc(Cl)cc1 (stereo partly drawn) [Example 17, (3R)-3-(4-Chlorophenyl)-2-[(5-chloropyridin-2-yl)methyl]-6-(1,2-dihydroxypropan-2-yl)-4-fluoro-3-({1-[hydroxy(^2H2)methyl]cyclopropyl}(^2H2)methoxy)-2,3-dihydro-1H-isoindol-1-one] |  |  | pIC50 ([3]; read-out: SJSA-1 IC50 (Protocol A), SJSA-1 cells, SRB, 72 hrs): 7.00
13 | C[C@@H](CO[C@]1(c2ccc(Cl)cc2)c2c(F)cc(C(C)(C)O)cc2C(=O)N1Cc1ccc(Cl)cn1)C(N)=O [Example 167, (2S)-3-{[(1R)-1-(4-Chlorophenyl)-2-[(5-chloropyridin-2-yl)methyl]-7-fluoro-5-(2-hydroxypropan-2-yl)-3-oxo-2,3-dihydro-1H-isoindol-1-yl]oxy}-2-methylpropanamide] |  |  | pIC50 [3, 6]: 6.19
14 | CC(C)(O)c1cc(F)c2c(c1)C(=O)N(Cc1ccc(Cl)cn1)[C@@]2(OCC1(CNCCO)CC1)c1ccc(Cl)cc1 [Example 326, (3R)-3-(4-chlorophenyl)-2-[(5-chloropyridin-2-yl)methyl]-4-fluoro-3-[(1-{[(2-hydroxyethyl)amino]methyl}cyclopropyl)methoxy]-6-(2-hydroxypropan-2-yl)-2,3-dihydro-1H-isoindol-1-one] |  |  | inhibition at 0.03 µM [1]: 50%; pIC50 (SJSA-1; Homo sapiens, SJSA-1, 72 h): 5.70
15 | CCC(O)(c1cc(F)c2c(c1)C(=O)N(Cc1ncc(C#N)cn1)[C@@]2(O[C@H]1CCOC1)c1ccc(Cl)cc1)[C@H]1CC[C@H](O)CC1 (stereo partly drawn) [Example 503, 2-{[(1R)-1-(4-chlorophenyl)-7-fluoro-5-{1-hydroxy-1-[trans-4-hydroxycyclohexyl]propyl}-3-oxo-1-[(3S)-oxolan-3-yloxy]-2,3-dihydro-1H-isoindol-2-yl]methyl}pyrimidine-5-carbonitrile] |  | 0.011 µM | inhibition at 0.001 µM ([1]; @ 0.0010 μM): 87%
16 | CCC(O)(c1cc(F)c2c(c1)C(=O)N(Cc1ncc(C#N)cn1)[C@@]2(OCCO)c1ccc(Cl)cc1)[C@H]1CC[C@H](O)CC1 (stereo partly drawn) [Example 510, 2-{[(1R)-1-(4-chlorophenyl)-7-fluoro-5-{1-hydroxy-1-[trans-4-hydroxycyclohexyl]propyl}-1-(2-hydroxyethoxy)-3-oxo-2,3-dihydro-1H-isoindol-2-yl]methyl}pyrimidine-5-carbonitrile] | 0.084 µM | 0.073 µM | 
17 | [2H]C([2H])(O)C1(C([2H])([2H])O[C@]2(c3ccc(Cl)cc3)c3c(F)cc(C(C)(C)O)cc3C(=O)N2Cc2ncc(C#N)cn2)CC1 [Example 513, 2-{[(1R)-1-(4-chlorophenyl)-7-fluoro-1-({1-[hydroxydideuteromethyl]cyclo-propyl}dideuteromethoxy)-5-(2-hydroxypropan-2-yl)-3-oxo-2,3-dihydro-1H-isoindol-2-yl]methyl}pyrimidine-5-carbonitrile] | 0.26 µM | 0.38 µM | pIC50 [1]: 8.51

More lines, main results first:

Row | IC50 ([3]; Homo sapiens, SJSA-1, 72 h) | IC50 (SJSA-1; [4]) | Structure (SMILES) | further results
18 | 0.073 µM | 0.047 µM | CCC(O)(c1cc(F)c2c(c1)C(=O)N(Cc1ncc(C#N)cn1)[C@@]2(OCC1(C#N)CC1)c1ccc(Cl)cc1)c1cn(C)cn1 (single isomer, unassigned) [Example 462] | 
19 | 0.028 µM |  | CCC(O)(c1cc(F)c2c(c1)C(=O)N(Cc1ncc(Cl)cn1)[C@@]2(O[C@H]1CCOC1)c1ccc(Cl)cc1)c1cn(C)cn1 (single isomer, unassigned) [Example 475] | 
20 | 0.013 µM |  | CCC(O)(c1cc(F)c2c(c1)C(=O)N(Cc1ncc(Cl)cn1)[C@@]2(OCC1(CO)CC1)c1ccc(Cl)cc1)c1cn(C)cn1 (single isomer, unassigned) [Example 477] | 
21 | 0.019 µM |  | CCC(O)(c1cc(F)c2c(c1)C(=O)N(Cc1ncc(Cl)cn1)[C@@]2(OCCO)c1ccc(Cl)cc1)[C@H]1CC[C@H](O)CC1 (single isomer, unassigned) [Example 517] | 
22 | 0.21 µM | 0.07 µM | CN1CCC(C(C)(O)c2cc(F)c3c(c2)C(=O)N(Cc2ncc(Cl)cn2)[C@@]3(OCC2(CO)CC2)c2ccc(Cl)cc2)CC1 (single isomer, unassigned) [Example 554] | 
23 |  | 0.079 µM | CN1CCC(C(C)(O)c2cc(F)c3c(c2)C(=O)N(Cc2ccc(Cl)cn2)[C@@]3(OCC2(CO)CC2)c2ccc(Cl)cc2)CC1 (single isomer, unassigned) [Example 555] | inhibition at 0.001 µM ([1]; @ 0.0010 μM): 55%
24 |  | 0.027 µM | CCC(O)(c1cc(F)c2c(c1)C(=O)N(Cc1ncc(Cl)cn1)[C@@]2(OC)c1ccc(Cl)cc1)C1(F)CCN(C)CC1 (single isomer, unassigned) [Example 563] | IC50 [2]: 15 µM
25 |  | 0.00038 µM | CCC(O)(c1cc(F)c2c(c1)C(=O)N(Cc1ncc(Cl)cn1)[C@@]2(OCC1(C#N)CC1)c1ccc(Cl)cc1)C1(F)CCN(C)CC1 (single isomer, unassigned) [Example 564] | IC50 [2]: 16 µM
26 | 0.034 µM | 0.046 µM | CCC(O)(c1cc(F)c2c(c1)C(=O)N(Cc1ncc(Cl)cn1)[C@@]2(O[C@H]1C[C@@H](O)C1)c1ccc(Cl)cc1)C1(F)CCN(C)CC1 (single isomer, unassigned) [Example 570] | 
27 |  | 0.022 µM | CCC(O)(c1cc(F)c2c(c1)C(=O)N(Cc1ncc(Cl)cn1)[C@@]2(OC[C@@H](C)O)c1ccc(Cl)cc1)C1(F)CCN(C)CC1 (single isomer, unassigned) [Example 572] | IC50 [2]: 18 µM
28 | 0.075 µM |  | CCC(O)(c1cc(F)c2c(c1)C(=O)N(Cc1ncc(Cl)cn1)[C@@]2(OCC1(C(N)=O)CC1)c1ccc(Cl)cc1)c1cn(C)cn1 (stereo partly drawn) [Example 486, 1-({[(1R)-1-(4-chlorophenyl)-2-[(5-chloropyrimidin-2-yl)methyl]-7-fluoro-5-[1-hydroxy-1-(1-methyl-1H-imidazol-4-yl)propyl]-3-oxo-2,3-dihydro-1H-isoindol-1-yl]oxy}methyl) cyclopropane-1-carboxamide] | 
29 | 0.25 µM | 0.037 µM | CC[C@@](O)(c1cc(F)c2c(c1)C(=O)N(Cc1ncc(C#N)cn1)[C@@]2(O[C@H]1CCOC1)c1ccc(Cl)cc1)C1CCN(C)CC1 [Example 557, 2-{[(1R)-1-(4-chlorophenyl)-7-fluoro-5-[(1S)-1-hydroxy-1-(1-methylpiperidin-4-yl)propyl]-3-oxo-1-[(3S)-oxolan-3-yloxy]-2,3-dihydro-1H-isoindol-2-yl]methyl}pyrimidine-5-carbonitrile] | 
